Several values for one entry are separate records, joined by “and”; a condition that tells them apart may be missing. Identical values can stand only once.
Tests used:
Format in all cases: in vivo
Lamium purpureum = assay: Post-emergence herbicidal action against Lamium purpureum
Procedure, shortened: (§1)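 Greenhouse pot test: three-leaf-stage plants, three weeks from sowing, sprayed with spray-powder or emulsion-concentrate formulations at several dosages (300 to 800 l/ha water). Efficacy rated visually against untreated plants some 3 to 4 weeks later, with Colby formula giving expected combination effect.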

Bidens pilosa = assay: Post-emergence herbicidal action against Bidens pilosa
Procedure, shortened: as §1

Setaria viridis = assay: Post-emergence herbicidal action against Setaria viridis; conditions: 1.7 g of a.i./ha
Protocol: When the observed efficacies exceed the formal sum total of the values of the tests with individual applications, they also exceed the expected value according to Colby, which is calculated using the formula below and is likewise regarded as an indication of synergism (cf. S. R. Colby; in Weeds 15 (1967) p. 20 to 22): E^C=A+B−([…])
Here: • A=efficacy of the active compound (A) in % at an application rate of a g a.i./ha; • B=efficacy of the active compound (B) in % at an application rate of b g a.i./ha; • E^C=expected value of the effect of the combination (A)+(B) in % at the combined application rate a+b g a.i./ha.
Seeds or rhizome pieces of mono- and dicotyledonous weeds are placed in sandy loam in pots, covered with soil and grown in a greenhouse under good growth conditions (temperature, air humidity, water supply). Three weeks after sowing, the test plants were treated at the three-leaf stage with the compositions according to the invention. The compositions according to the invention formulated as spray powders or as emulsion concentrates were sprayed onto the green plant parts in various dosages with an application rate of 300 to 800 l/ha of water (equivalent). After the test plants have been left to stand in the greenhouse under optimal growth conditions for about 3 to 4 weeks, the action of the preparations is scored visually in comparison to untreated controls. The compositions according to the invention also have good post-emergence herbicidal activity against a broad spectrum of economically important gramineous and broadleaf weeds.

Digitaria sanguinalis = assay: Post-emergence herbicidal action against Digitaria sanguinalis
Procedure, shortened: as §1

Poa annua = assay: Post-emergence herbicidal action against Poa annua
Procedure, shortened: as §1

Galium aparine = assay: Post-emergence herbicidal action against Galium aparine; conditions: 1 g of a.i./ha
Procedure, shortened: as §1

In the case of `C=C[C@]1(C(=O)N[C@H]2CO[C@@H](C(=O)OC)C2)CC(c2cc(F)cc(F)c2)=NO1` (relative stereo) [Compound A3, methyl rel-(2R,4R)-4-[[(5S)-3-(3,5-difluorophenyl)-5-vinyl-4H-isoxazole-5-carbonyl]amino]tetrahydrofuran-2-carboxylate], the “Herbicidal action 14 DAT against Lamium purpureum L.” value (Lamium purpureum; 1 g of a.i./ha) is reported as 65%, the “Herbicidal action 28 DAT against Lamium purpureum L.” value (Lamium purpureum; 1 g of a.i./ha) is reported as 25% and the “Herbicidal action in [%] 14 DAT against Lamium purpureum L.” value (Lamium purpureum; 1 g of a.i./ha) is reported as 65%. The “Herbicidal action in [%] 28 DAT against Lamium purpureum L.” value (Lamium purpureum; 1 g of a.i./ha) was 25%, the “Herbicidal action in [%] 28 DAT against Lamium purpureum L.” value (Lamium purpureum; 4 g of a.i./ha) was 40% and the “Herbicidal action against Lamium purpureum L.” value (Lamium purpureum; 14 DAT, 1 g of a.i./ha) was 65%. The “Herbicidal action against Lamium purpureum L.” value (Lamium purpureum; 28 DAT, 1 g of a.i./ha) was 25%, the “Herbicidal action against Lamium purpureum L.” value (Lamium purpureum; 28 DAT, 4 g of a.i./ha) was 40% and the “Herbicidal action 32 DAT [%] against Lamium purpureum” value (Lamium purpureum; 100 g of a.i./ha, post-emergence) was 50%. The “Herbicidal action 14 DAT against Lamium purpureum L.” value (Lamium purpureum; (Z61) post-emergence, g of a.i./ha: 1, 270, 90, 1 + 270, 1 + 90) was 65%, the “Herbicidal action 21 DAT [%] against Bidens pilosa” value (Bidens pilosa; 1.7 g of a.i./ha) was 10% and 0% and the “Herbicidal action 21 DAT against Bidens pilosa” value (Bidens pilosa; 1.7 g of a.i./ha) was 10%. The “Herbicidal action 21 DAT [%] against Bidens pilosa” value (Bidens pilosa; 1.7 g of a.i./ha, post-emergence, block with (B1.14) Tembotrione) was 10%, the “Herbicidal action 21 DAT [%] against Bidens pilosa” value (Bidens pilosa; 1.7 g of a.i./ha, post-emergence, block with (B1.7) Mesotrione) was 0% and the “Herbicidal action 21 DAT [%] against Bidens pilosa” value (Bidens pilosa; 5 g of a.i./ha) was 10%. For the same compound, the “Herbicidal action 21 DAT against Bidens pilosa” value (Bidens pilosa; 5 g of a.i./ha) was 10%, the “Herbicidal action 21 DAT [%] against Bidens pilosa” value (Bidens pilosa; 5 g of a.i./ha, post-emergence, block with (B1.14) Tembotrione) was 10% and the “Herbicidal action 21 DAT [%] against Bidens pilosa” value (Bidens pilosa; 5 g of a.i./ha, post-emergence, block with (B1.7) Mesotrione) was 10%. The “Herbicidal action 21 DAT [%] against Bidens pilosa” value (Bidens pilosa; 15 g of a.i./ha) was 50%, the “Herbicidal action 21 DAT [%] against Bidens pilosa” value (Bidens pilosa; 15 g of a.i./ha, post-emergence, block with (B1.7) Mesotrione) was 25% and the Herbicidal action (Bidens pilosa; 21 DAT, 1.7 g a.i./ha) was 10%. The Herbicidal action (Bidens pilosa; 21 DAT, 5 g a.i./ha) was 10%, the “Herbicidal action 21 DAT [%] against Bidens pilosa” value (Bidens pilosa; post-emergence, 21 DAT, 1.7 g of a.i./ha) was 0% and the “Herbicidal action 21 DAT [%] against Bidens pilosa” value (Bidens pilosa; post-emergence, 21 DAT, 5 g of a.i./ha) was 10%. The “Herbicidal action 21 DAT [%] against Bidens pilosa” value (Bidens pilosa; post-emergence, 21 DAT, 15 g of a.i./ha) was 25%, the “Herbicidal action 21 DAT against Setaria viridis” value (Setaria viridis) was 70% and the “Herbicidal action 21 DAT [%] against Setaria viridis” value (Setaria viridis; post-emergence) was 70%. The “Herbicidal action 21 DAT [%] against Digitaria sanguinalis” value (Digitaria sanguinalis; 1.7 g of a.i./ha) was 20% and 10%, the “Herbicidal action 21 DAT against Digitaria sanguinalis” value (Digitaria sanguinalis; 1.7 g of a.i./ha) was 10% and the “Herbicidal action 21 DAT [%] against Digitaria sanguinalis” value (Digitaria sanguinalis; 1.7 g of a.i./ha, post-emergence) was 10%. For the same compound, the “Herbicidal action 21 DAT [%] against Digitaria sanguinalis” value (Digitaria sanguinalis; 5 g of a.i./ha) was 80%, the “Herbicidal action 21 DAT against Digitaria sanguinalis” value (Digitaria sanguinalis; 5 g of a.i./ha) was 80% and the Herbicidal action (Digitaria sanguinalis; 21 DAT, 1.7 g a.i./ha) was 10%. For the same compound, the “Herbicidal action 37 DAT against Digitaria sanguinalis” value (Digitaria sanguinalis; (Z61) post-emergence, g of a.i./ha: 180, 100, 100 + 180) was 94%, the “Herbicidal action 28 DAT against Poa annua L.” value (Poa annua; 1 g of a.i./ha) was 15% and the “Herbicidal action in [%] 14 DAT against Poa annua L.” value (Poa annua; 1 g of a.i./ha) was 40% and 50%. For the same compound, the “Herbicidal action in [%] 28 DAT against Poa annua L.” value (Poa annua; 1 g of a.i./ha) was 15% and 20%, the “Herbicidal action in [%] 28 DAT against Poa annua” value (Poa annua; 1 g of a.i./ha, post-emergence) was 30% and the “Herbicidal action in [%] 14 DAT against Poa annua L.” value (Poa annua; 4 g of a.i./ha) was 85%. For the same compound, the “Herbicidal action in [%] 28 DAT against Poa annua L.” value (Poa annua; 4 g of a.i./ha) was 80%, the Herbicidal action (Poa annua; 14 DAT, 1 g a.i./ha) was 50% and the “Herbicidal action against Poa annua L.” value (Poa annua; 14 DAT, 1 g of a.i./ha) was 40%. For the same compound, the Herbicidal action (Poa annua; 14 DAT, 4 g a.i./ha) was 85%, the “Herbicidal action against Poa annua L.” value (Poa annua; 14 DAT, 16 g of a.i./ha) was 85% and the “Herbicidal action 28 DAT against Poa annua L.” value (Poa annua; 16 g of a.i./ha) was 40%. For the same compound, the “Herbicidal action in [%] 14 DAT against Poa annua L.” value (Poa annua; 16 g of a.i./ha) was 85%, the Herbicidal action (Poa annua; 28 DAT, 1 g a.i./ha) was 20% and the “Herbicidal action against Poa annua L.” value (Poa annua; 28 DAT, 1 g of a.i./ha) was 15%. The Herbicidal action (Poa annua; 28 DAT, 4 g a.i./ha) was 80%, the Herbicidal action (Poa annua; 28 DAT, 16 g a.i./ha) was 85% and the “Herbicidal action against Poa annua L.” value (Poa annua; 28 DAT, 16 g of a.i./ha) was 40%. The Herbicidal action (Poa annua; 28 DAT, 50 g a.i./ha) was 0%, the “Herbicidal action in [%] 14 DAT against Poa annua L.” value (Poa annua; post-emergence, 14 DAT, 1 g of a.i./ha) was 50% and the “Herbicidal action in [%] 14 DAT against Poa annua L.” value (Poa annua; post-emergence, 14 DAT, 4 g of a.i./ha) was 85%. The “Herbicidal action in [%] 14 DAT against Poa annua L.” value (Poa annua; post-emergence, 14 DAT, 16 g of a.i./ha) was 93%, the “Herbicidal action in [%] 28 DAT against Poa annua L.” value (Poa annua; post-emergence, 28 DAT, 1 g of a.i./ha) was 20% and the “Herbicidal action in [%] 28 DAT against Poa annua L.” value (Poa annua; post-emergence, 28 DAT, 4 g of a.i./ha) was 80%. The “Herbicidal action in [%] 28 DAT against Poa annua L.” value (Poa annua; post-emergence, 28 DAT, 16 g of a.i./ha) was 85%, the “Herbicidal action 14 DAT against Galium aparine” value (Galium aparine) was 40% and the “Herbicidal action 28 DAT against Galium aparine” value (Galium aparine) was 15%. The “Herbicidal action in [%] 14 DAT against Galium aparine” value (Galium aparine) was 40%.

Reference: patent US12171230B2, “Herbicidal compositions” (Bayer Aktiengesellschaft, priority 2018, dated 2024)
